Source: patent publication US20190246658A1, “METHODS OF HANDLING PAPAYA” (AGROFRESH INC., priority 2013, published 2019)

Key:
Papayas ‘Golden’ [1] = experiment: Example 3: pulp firmness, external, MAP bags with different perforations; format: in vivo, papaya; settings: for External Firmness - Difference with Untreated Fruits (Δ) / Pulp Firmness - External: 100 ppb of MCP; for External Firmness - Difference with Untreated Fruits (Δ): 5 Days @ 24° C.
Description: (§1) Papayas ‘Golden’ were harvested in Linhares—Espírito Santo—Brazil. The fruits were packed in MAP Bags and put in cardboard boxes.
(§2) The appropriate weight of papayas was placed in each bag after harvest. Bags were placed in the same cardboard boxes used to export the fruits. Papayas then were cold stored at (11° C.) at the Laboratory.
(§3) The Test Protocol that was used was as follows. 40 MAP bags were packed. Each bag held approximately 3.8 kg (8.4 lb) of papayas. One of such bag was packed in each cardboard box. Total weight of papayas in MAP bags was approximately 152 kg. Approximately 8 kg of papayas were placed into cardboard boxes identical to those used for the MAP bags.
(§4) The MAP-packaged papayas were packaged as follows: Nine fruits, approximately 3.8 kg, were carefully placed into microperforated MAP-bags, and the bags were sealed by twisting the open side of the bag, folding down the twisted end, and placing a rubber band around the twisted and folded end of the bag.
(§5) All papayas were kept at cold temperature (11° C.) during 14 days and after that the fruits (packed in MAP bags or not) were put in room temperature (24° C.) during 5 days.
(§6) One day after harvest, when the papayas had around 30 lbf of average firmness, each treatment set was marked and placed in a hermetical chamber at cold temperature (11° C.). All chambers were of equal size and packed the same way. Treatment was for 12 hours.
(§7) In the chambers, SmartFresh™ was placed at the beginning of the treatment period for the 5 “MCP” treatment groups. The amount of SmartFresh™ was chosen to achieve the indicated concentration of 1-methylcyclopropene in the atmosphere of the chamber.
(§8) Evaluation for skin color and firmness was as follows. Day “zero” was the day the papayas were removed from the chamber and placed in storage.
For External Firmness, the papayas had the skin removed with a peeler and the pulp firmness was measured with a Firmness Texture Analyzer (FTA) with a probe of 8 mm.

Papayas ‘Golden’ [2] = experiment: Example 1: papaya skin color rating; format: in vivo; settings: for Skin color ratings: 100 ppb of MCP, scale 1 green to 5 yellow
Description: Papayas ‘Golden’ were harvested in Linhares—Espírito Santo—Brazil. The harvested fruits were packed in MAP Bags and put in cardboard boxes.
as §2
as §3, with “follows. 36” for “follows. 40”, “One” for “One of”, “approximately 137” for “approximately 152”, “Approximately 91” for “Approximately 8”
(§9) The MAP-packaged papayas were packaged as follows: Nine fruits, approximately 3.8 kg were carefully placed into microperforated bags, and the bags were sealed by twisting the open side of the bag, folding down the twisted end, and placing a rubber band around the twisted and folded end of the bag.
All papayas were kept at cold temperature (11° C.) during 27 days and after that the fruits (packed in MAP bags or not) were put in room temperature (22° C.) during 8 days.
One day after harvest, when the papayas had around 25 lbf of average firmness, each treatment set was marked, placed in a hermetical chamber at cold temperature (11° C.). All chambers were of equal size and packed the same way. Treatment was for 12 hours. In the chambers for the 3 “MCP” treatment groups, at the beginning of the treatment period, SmartFresh™ were placed in the chamber. The amount of SmartFresh™ was chosen to achieve the indicated concentration of 1-methylcyclopropene in the atmosphere of the chamber.
as §8
(§10) The Papaya Skin Color was rated with the following scale: 1: green; 2: approximately 25%; 3: approximately 50% colored; 4: approximately 75% colored; 5: yellow.

Papayas ‘Golden’ [3] = experiment: Example 2 (yellow stage): percentage of fruits with ideal internal pulp firmness (2.5-7.0 lbf); format: in vivo, papaya; settings: 500 ppb of MCP, ideal = between 2.5 and 7.0 lbf
Description: A similar test to Example 1 but papayas are tested during their yellow stage. Papayas ‘Golden’ were harvested in Linhares—Espírito Santo—Brazil. The fruits were packed in MAP Bags and put in cardboard boxes.
The fruits were first left at room temperature during 3 days to reach yellow maturity stage.
After that the appropriate weight of papayas was placed in each bag after harvest. Bags were placed in the same cardboard boxes used to export the fruits. Papayas then were cold stored at (11° C.) at the Laboratory.
as §3, with “follows. 18” for “follows. 40”, “One” for “One of”, “approximately 68” for “approximately 152”, “Approximately 68” for “Approximately 8”
as §9
All papayas were kept at cold temperature (11° C.) during 26 days and after that the fruits (packed in MAP bags or not) were put in room temperature (22° C.) during 8 days.
After the 3 days for maturation at room temperature, when the papayas had around 5 lbf of average firmness, each treatment set was marked, placed in a hermetical chamber at cold temperature (11° C.). All chambers were of equal size and packed the same way. Treatment was for 12 hr. In the chambers for the 2 “MCP” treatment groups, at the beginning of the treatment period, SmartFresh™ were placed in the chamber. The amount of SmartFresh™ was chosen to achieve the indicated concentration of 1-methylcyclopropene in the atmosphere of the chamber.
For the Pulp Firmness evaluation two measurements were done, one for External Firmness and another for Internal Firmness. For External Firmness, the papayas had the skin removed with a peeler and the pulp firmness was measured with a Firmness Texture Analyzer (FTA) with a probe of 8 mm. For Internal Firmness, the papayas were cut transversally and a measurement close to the center of the fruit was taken with the FTA.
The desirable internal pulp firmness for consumption of papayas is between 2.5 and 7.0 lbf. The percentage of fruits with internal pulp firmness between 2.5 and 7.0 lbf was calculated.

Papayas ‘Golden’ [4] = experiment: Example 3: papaya skin color rating, MAP bags with different perforations; format: in vivo; settings: for Skin color ratings: 100 ppb of MCP, scale 1 green to 5 yellow
Description: as §1, §2, §3, §4, §5, §6, §7, §8, §10

[5] = 24 Perf. MAP bag, 14 days at 11° C. then 3 days @ 24° C.
[6] = 24 Perf. MAP bag, 14 days at 11° C. then 5 days @ 24° C.
[7] = 48 Perf. MAP bag, 14 days at 11° C. then 3 days @ 24° C.
[8] = 48 Perf. MAP bag, 14 days at 11° C. then 5 days @ 24° C.
[9] = 90 Perf. MAP bag, 14 days at 11° C. then 3 days @ 24° C.
[10] = 90 Perf. MAP bag, 14 days at 11° C. then 5 days @ 24° C.
[11] = 180 Perf. MAP bag, 14 days at 11° C. then 3 days @ 24° C.
[12] = 180 Perf. MAP bag, 14 days at 11° C. then 5 days @ 24° C.
[13] = No Bag, 14 days at 11° C. then 3 days @ 24° C.
[14] = No Bag, 14 days at 11° C. then 5 days @ 24° C.

`CC1=CC1` [MCP, 1-methylcyclopropene] was tested, and the “external firmness during shelf-life, in words” value (Papayas ‘Golden’ [1]; 1-MCP alone (no MAP)) was “not high enough external firmness”, the “External Firmness - Difference with Untreated Fruits (Δ)” value (from here on “External Firmness - Difference … (Δ)”) (Papayas ‘Golden’ [1]; 24 Perf. MAP bag) was 2.59 lbf and the “Pulp Firmness - External” value (Papayas ‘Golden’ [1]; [5]) was 5.23 lbf. For the same molecule, the “Pulp Firmness - External” value (Papayas ‘Golden’ [1]; [6]) was 4.12 lbf, the “External Firmness - Difference … (Δ)” value (Papayas ‘Golden’ [1]; 48 Perf. MAP bag) was 0.89 lbf and the “Pulp Firmness - External” value (Papayas ‘Golden’ [1]; [7]) was 3.68 lbf. For the same molecule, the “Pulp Firmness - External” value (Papayas ‘Golden’ [1]; [8]) was 2.42 lbf, the “External Firmness - Difference … (Δ)” value (Papayas ‘Golden’ [1]; 90 Perf. MAP bag) was 1.75 lbf and the “Pulp Firmness - External” value (Papayas ‘Golden’ [1]; [9]) was 3.94 lbf. For the same molecule, the “Pulp Firmness - External” value (Papayas ‘Golden’ [1]; [10]) was 3.28 lbf, the “External Firmness - Difference … (Δ)” value (Papayas ‘Golden’ [1]; 180 Perf. MAP bag) was 1.27 lbf and the “Pulp Firmness - External” value (Papayas ‘Golden’ [1]; [11]) was 3.64 lbf. For the same molecule, the “Pulp Firmness - External” value (Papayas ‘Golden’ [1]; [12]) was 2.80 lbf, the “External Firmness - Difference … (Δ)” value (Papayas ‘Golden’ [1]; No Bag) was 1.09 lbf and the “Pulp Firmness - External” value (Papayas ‘Golden’ [1]; [13]) was 6.23 lbf. The “Pulp Firmness - External” value (Papayas ‘Golden’ [1]; [14]) was 2.62 lbf, the “papayas color, in words” value (Papayas ‘Golden’ [2]; 1-MCP alone (no MAP)) was “did not hold the papayas color” and the “Skin color ratings” value (Papayas ‘Golden’ [2]; MAP bag, 27 days at 11° C. then 0 days @ 22° C.) was 2.14. The “Skin color ratings” value (Papayas ‘Golden’ [2]; MAP bag, 27 days at 11° C. then 4 days @ 22° C.) was 2.74, the “Skin color ratings” value (Papayas ‘Golden’ [2]; MAP bag, 27 days at 11° C. then 8 days @ 22° C.) was 3.46 and the “Skin color ratings” value (Papayas ‘Golden’ [2]; No Bag, 27 days at 11° C. then 0 days @ 22° C.) was 1.70. The “Skin color ratings” value (Papayas ‘Golden’ [2]; No Bag, 27 days at 11° C. then 4 days @ 22° C.) was 4.28, the “Skin color ratings” value (Papayas ‘Golden’ [2]; No Bag, 27 days at 11° C. then 8 days @ 22° C.) was 4.44 and the “Percentage of fruits with ideal internal pulp firmness” value (shortened to “Percentage of fruits”) (Papayas ‘Golden’ [3]; MAP bag, 26 days at 11° C. then 0 days @ 22° C.) was 77.08%. For the same molecule, the “Percentage of fruits” value (Papayas ‘Golden’ [3]; MAP bag, 26 days at 11° C. then 4 days @ 22° C.) was 28.57%, the “Percentage of fruits” value (Papayas ‘Golden’ [3]; MAP bag, 26 days at 11° C. then 8 days @ 22° C.) was 0.00% and the “Percentage of fruits” value (Papayas ‘Golden’ [3]; No Bag, 26 days at 11° C. then 0 days @ 22° C.) was 60.87%. For the same molecule, the “Percentage of fruits” value (Papayas ‘Golden’ [3]; No Bag, 26 days at 11° C. then 4 days @ 22° C.) was 12.90%, the “Percentage of fruits” value (Papayas ‘Golden’ [3]; No Bag, 26 days at 11° C. then 8 days @ 22° C.) was 0.00% and the “papayas color, in words” value (Papayas ‘Golden’ [4]; 1-MCP alone (no MAP)) was “did not hold the papayas color”. The Skin color ratings (Papayas ‘Golden’ [4]; 24 Perf. MAP bag, 14 days at 11° C. then 0 days @ 24° C.) was 1.60, the Skin color ratings (Papayas ‘Golden’ [4]; [5]) was 2.04 and the Skin color ratings (Papayas ‘Golden’ [4]; [6]) was 3.75. It also gave a Skin color ratings (Papayas ‘Golden’ [4]; 48 Perf. MAP bag, 14 days at 11° C. then 0 days @ 24° C.) of 1.96, a Skin color ratings (Papayas ‘Golden’ [4]; [7]) of 3.02 and a Skin color ratings (Papayas ‘Golden’ [4]; [8]) of 4.52. For the same molecule, the Skin color ratings (Papayas ‘Golden’ [4]; 90 Perf. MAP bag, 14 days at 11° C. then 0 days @ 24° C.) was 1.71, the Skin color ratings (Papayas ‘Golden’ [4]; [9]) was 3.18 and the Skin color ratings (Papayas ‘Golden’ [4]; [10]) was 4.36. It also gave a Skin color ratings (Papayas ‘Golden’ [4]; 180 Perf. MAP bag, 14 days at 11° C. then 0 days @ 24° C.) of 1.73, a Skin color ratings (Papayas ‘Golden’ [4]; [11]) of 4.13 and a Skin color ratings (Papayas ‘Golden’ [4]; [12]) of 4.84. For the same molecule, the Skin color ratings (Papayas ‘Golden’ [4]; No Bag, 14 days at 11° C. then 0 days @ 24° C.) was 1.82, the Skin color ratings (Papayas ‘Golden’ [4]; [13]) was 4.11 and the Skin color ratings (Papayas ‘Golden’ [4]; [14]) was 4.96. The “skin coloring delay and external pulp firmness retention, in words” value (Papayas ‘Golden’ [4]; combination of 1-MCP and MAP bag versus any treatment alone) was “synergistic effect”.
